The term IC50 denotes the point on the concentration scale where inhibition reaches its midpoint.

This is an account of results in patent US20220348876A1, “METABOLISM GUIDES DEFINITIVE LINEAGE SPECIFICATION DURING ENDOTHELIAL TO HEMATOPOIETIC TRANSITION” (Amniotics AB, priority 2019, published 2022).

The test system of one assay is HE cells. The assay can be described thus: confocal imaging: filipin III and histone acetylation staining. The assay is classed as cell-based, human. Conditions: day 2, DCA-treated HE cells. Here is the method:
For TMRE staining, on day 3 of subculture, half of the culture medium was removed and cells were stained with 20 nM TMRE (Thermo Fisher Scientific, T669) by direct addition into the culture medium of a 2× concentrated solution. After a 20-minute incubation at 37° C., wells were carefully washed with PBS and fresh HE medium was added. During acquisition, cells were kept in a humidified incubator at 37° C., 5% CO2, 20% O2. For immunocytochemistry, subculture day 2 HE cells (plated on coverslips) were washed twice in PBS, fixed with 4% PFA for 15 minutes at RT and washed three times with PBS. For filipin staining, fixed cells were incubated with 100 μg/ml filipin III (Sigma-Aldrich, F4767) for 1 hour, washed three times with PBS and rinsed with distilled water before mounting with PVA/DABCO. […] Intensity quantification was performed using the Fiji software as follows. For TMRE, using the brightfield channel, ROIs were selected for 5 spindle-shaped and 5 round cells (randomly chosen) and average intensity for each ROI was calculated in a summatory Z-stack of the TMRE channel. For filipin and acetylation, the summatory Z-stack for the filipin channel was obtained and average intensity calculated. A total of 2-3 independent experiments with 2-3 replicate wells were quantified. […]

Assay [1] has as its system mitochondrial pyruvate carrier (MPC). Conditions: read-out: IC50 of pyruvate-dependent O2 consumption; cited from earlier work.

For the compound `O=C(O)C(Cl)Cl` [DCA, dichloroacetate], the “increase in cholesterol content” value in the assay on HE cells is given as 8%.

As to `N#C/C(=C\c1cn(-c2ccccc2)c2ccccc12)C(=O)O` [UK5099], in assay [1], the IC50 was […].
